Measurements from ChEMBL document CHEMBL5316337, “Critical Role of Position 10 Residue in the Polymyxin Antimicrobial Activity” (J Med Chem, 2023).
Values after ≈ are worked out from the molar mass of the structure shown.

How the values were obtained:
Assay type in all cases: functional
Pseudomonas aeruginosa [1] = assay: Antibacterial activity against polymyxin-susceptible Pseudomonas aeruginosa ATCC 27853 clinical isolates assessed as reduction in bacterial growth by broth microdilution method
Pseudomonas aeruginosa [2] = assay: Antibacterial activity against Carbapenem-resistant Pseudomonas aeruginosa FADD1-PA022 clinical isolates assessed as reduction in bacterial growth by broth microdilution method
Pseudomonas aeruginosa [3] = assay: Antibacterial activity against Carbapenem-resistant Pseudomonas aeruginosa FADD1-PA001 clinical isolates assessed as reduction in bacterial growth by broth microdilution method
Pseudomonas aeruginosa [4] = assay: Antibacterial activity against polymyxin-susceptible Pseudomonas aeruginosa FADD1-PA038 clinical isolates assessed as reduction in bacterial growth by broth microdilution method
Pseudomonas aeruginosa [5] = assay: Antibacterial activity against polymyxin-susceptible Pseudomonas aeruginosa FADD1-PA025 clinical isolates assessed as reduction in bacterial growth by broth microdilution method
Acinetobacter baumannii [6] = assay: Antibacterial activity against polymyxin-susceptible Acinetobacter baumannii ATCC 19606 clinical isolates assessed as reduction in bacterial growth by broth microdilution method
Acinetobacter baumannii [7] = assay: Antibacterial activity against Carbapenem-resistant Acinetobacter baumannii FADD1-AB034 clinical isolates assessed as reduction in bacterial growth by broth microdilution method
Acinetobacter baumannii [8] = assay: Antibacterial activity against polymyxin-susceptible Acinetobacter baumannii ATCC 17978 clinical isolates assessed as reduction in bacterial growth by broth microdilution method
Acinetobacter baumannii [9] = assay: Antibacterial activity against Carbapenem-resistant Acinetobacter baumannii FADD1-AB030 clinical isolates assessed as reduction in bacterial growth by broth microdilution method
Klebsiella pneumoniae [10] = assay: Antibacterial activity against Carbapenem-resistant Klebsiella pneumoniae FADD1-KP032 clinical isolates assessed as reduction in bacterial growth by broth microdilution method
Klebsiella pneumoniae [11] = assay: Antibacterial activity against Carbapenem-resistant Klebsiella pneumoniae FADD1-KP022 clinical isolates assessed as reduction in bacterial growth by broth microdilution method
Klebsiella pneumoniae [12] = assay: Antibacterial activity against Carbapenem-resistant Klebsiella pneumoniae BM1 clinical isolates assessed as reduction in bacterial growth by broth microdilution method
Klebsiella pneumoniae [13] = assay: Antibacterial activity against polymyxin-susceptible Klebsiella pneumoniae ATCC 700721 clinical isolates assessed as reduction in bacterial growth by broth microdilution method
Klebsiella pneumoniae [14] = assay: Antibacterial activity against Carbapenem-resistant Klebsiella pneumoniae FADD1-KP065 clinical isolates assessed as reduction in bacterial growth by broth microdilution method
Enterobacter cloacae [15] = assay: Antibacterial activity against polymyxin-susceptible Enterobacter cloacae FADD1-EC006 clinical isolates assessed as reduction in bacterial growth by broth microdilution method
Enterobacter cloacae [16] = assay: Antibacterial activity against polymyxin-susceptible Enterobacter cloacae FADD1-EC001 clinical isolates assessed as reduction in bacterial growth by broth microdilution method
Enterobacter cloacae [17] = assay: Antibacterial activity against polymyxin-susceptible Enterobacter cloacae FADD1-EC003 clinical isolates assessed as reduction in bacterial growth by broth microdilution method

Compound	MIC (Pseudomonas aeruginosa [1]) [µg/mL]	MIC (Pseudomonas aeruginosa [2]) [µg/mL]	MIC (Pseudomonas aeruginosa [3]) [µg/mL]	MIC (Pseudomonas aeruginosa [4]) [µg/mL]	MIC (Pseudomonas aeruginosa [5]) [µg/mL]	MIC (Acinetobacter baumannii [6]) [µg/mL]	MIC (Acinetobacter baumannii [7]) [µg/mL]	MIC (Acinetobacter baumannii [8]) [µg/mL]	MIC (Acinetobacter baumannii [9]) [µg/mL]	MIC (Klebsiella pneumoniae [10]) [µg/mL]	MIC (Klebsiella pneumoniae [11]) [µg/mL]	MIC (Klebsiella pneumoniae [12]) [µg/mL]	MIC (Klebsiella pneumoniae [13]) [µg/mL]	MIC (Klebsiella pneumoniae [14]) [µg/mL]	MIC (Enterobacter cloacae [15]) [µg/mL]	MIC (Enterobacter cloacae [16]) [µg/mL]	MIC (Enterobacter cloacae [17]) [µg/mL]
CC[C@H](C)CCCCC(=O)N[C@@H](CCN)C(=O)N[C@H](C(=O)N[C@@H](CCN)C(=O)N[C@H]1CCNC(=O)[C@H](Cc2c[nH]c3ccccc23)NC(=O)[C@H](CCN)NC(=O)[C@H](CCN)NC(=O)[C@H](CC(C)C)NC(=O)[C@@H](Cc2ccccc2)NC(=O)[C@H](CCN)NC1=O)[C@@H](C)O	2 (≈ 1.55 µM)	2 (≈ 1.55 µM)	4 (≈ 3.1 µM)	4 (≈ 3.1 µM)	2 (≈ 1.55 µM)	2 (≈ 1.55 µM)	4 (≈ 3.1 µM)	4 (≈ 3.1 µM)	2 (≈ 1.55 µM)	4 (≈ 3.1 µM)	1 (≈ 0.776 µM)	4 (≈ 3.1 µM)	8 (≈ 6.21 µM)	2 (≈ 1.55 µM)	4 (≈ 3.1 µM)	8 (≈ 6.21 µM)	8 (≈ 6.21 µM)
CC[C@H](C)CCCCC(=O)N[C@@H](CCN)C(=O)N[C@H](C(=O)N[C@@H](CCN)C(=O)N[C@H]1CCNC(=O)[C@H](C(C)C)NC(=O)[C@H](CCN)NC(=O)[C@H](CCN)NC(=O)[C@H](CC(C)C)NC(=O)[C@@H](Cc2ccccc2)NC(=O)[C@H](CCN)NC1=O)[C@@H](C)O	1 (≈ 0.832 µM)	1 (≈ 0.832 µM)	1 (≈ 0.832 µM)	2 (≈ 1.66 µM)	1 (≈ 0.832 µM)	4 (≈ 3.33 µM)	4 (≈ 3.33 µM)	4 (≈ 3.33 µM)	2 (≈ 1.66 µM)	1 (≈ 0.832 µM)	0.25 (≈ 0.208 µM)	1 (≈ 0.832 µM)	8 (≈ 6.66 µM)	1 (≈ 0.832 µM)	16 (≈ 13.3 µM)	4 (≈ 3.33 µM)	2 (≈ 1.66 µM)
CC[C@H](C)CCCCC(=O)N[C@@H](CCN)C(=O)N[C@H](C(=O)N[C@@H](CCN)C(=O)N[C@H]1CCNC(=O)[C@H](C(C)(C)C)NC(=O)[C@H](CCN)NC(=O)[C@H](CCN)NC(=O)[C@H](CC(C)C)NC(=O)[C@@H](Cc2ccccc2)NC(=O)[C@H](CCN)NC1=O)[C@@H](C)O	2 (≈ 1.65 µM)	2 (≈ 1.65 µM)	2 (≈ 1.65 µM)	4 (≈ 3.29 µM)	2 (≈ 1.65 µM)	8 (≈ 6.58 µM)	4 (≈ 3.29 µM)	4 (≈ 3.29 µM)	4 (≈ 3.29 µM)	2 (≈ 1.65 µM)	1 (≈ 0.823 µM)	8 (≈ 6.58 µM)	8 (≈ 6.58 µM)	4 (≈ 3.29 µM)	8 (≈ 6.58 µM)	8 (≈ 6.58 µM)	4 (≈ 3.29 µM)
CC[C@H](C)CCCCC(=O)N[C@@H](CCN)C(=O)N[C@H](C(=O)N[C@@H](CCN)C(=O)N[C@H]1CCNC(=O)[C@H](CCSC)NC(=O)[C@H](CCN)NC(=O)[C@H](CCN)NC(=O)[C@H](CC(C)C)NC(=O)[C@@H](Cc2ccccc2)NC(=O)[C@H](CCN)NC1=O)[C@@H](C)O	1 (≈ 0.811 µM)	1 (≈ 0.811 µM)	2 (≈ 1.62 µM)	2 (≈ 1.62 µM)	2 (≈ 1.62 µM)	4 (≈ 3.24 µM)	4 (≈ 3.24 µM)	4 (≈ 3.24 µM)	2 (≈ 1.62 µM)	2 (≈ 1.62 µM)	1 (≈ 0.811 µM)	2 (≈ 1.62 µM)	4 (≈ 3.24 µM)	1 (≈ 0.811 µM)	16 (≈ 13 µM)	8 (≈ 6.49 µM)	4 (≈ 3.24 µM)
CC[C@H](C)CCCCC(=O)N[C@@H](CCN)C(=O)N[C@H](C(=O)N[C@@H](CCN)C(=O)N[C@H]1CCNC(=O)[C@H](Cc2ccc(O)cc2)NC(=O)[C@H](CCN)NC(=O)[C@H](CCN)NC(=O)[C@H](CC(C)C)NC(=O)[C@@H](Cc2ccccc2)NC(=O)[C@H](CCN)NC1=O)[C@@H](C)O	2 (≈ 1.58 µM)	1 (≈ 0.79 µM)	4 (≈ 3.16 µM)	8 (≈ 6.32 µM)	2 (≈ 1.58 µM)	2 (≈ 1.58 µM)	2 (≈ 1.58 µM)	2 (≈ 1.58 µM)	4 (≈ 3.16 µM)	4 (≈ 3.16 µM)	0.5 (≈ 0.395 µM)	1 (≈ 0.79 µM)	8 (≈ 6.32 µM)	4 (≈ 3.16 µM)	16 (≈ 12.6 µM)	16 (≈ 12.6 µM)	8 (≈ 6.32 µM)
C/C=C1/NC(=O)[C@H](CCN)NC(=O)[C@H](CCN)NC(=O)[C@H](CC(C)C)NC(=O)[C@@H](Cc2ccccc2)NC(=O)[C@H](CCN)NC(=O)[C@@H](NC(=O)[C@H](CCN)NC(=O)[C@@H](NC(=O)[C@H](CCN)NC(=O)CCCC[C@@H](C)CC)[C@@H](C)O)CCNC1=O	2 (≈ 1.69 µM)	1 (≈ 0.844 µM)	4 (≈ 3.37 µM)	16 (≈ 13.5 µM)	2 (≈ 1.69 µM)	4 (≈ 3.37 µM)	2 (≈ 1.69 µM)	1 (≈ 0.844 µM)	2 (≈ 1.69 µM)	8 (≈ 6.75 µM)	2 (≈ 1.69 µM)	8 (≈ 6.75 µM)	16 (≈ 13.5 µM)	4 (≈ 3.37 µM)	> 32	> 32	> 32
CC[C@H](C)CCCCC(=O)N[C@@H](CCN)C(=O)N[C@H](C(=O)N[C@@H](CCN)C(=O)N[C@H]1CCNC(=O)[C@H](CCN)NC(=O)[C@H](CCN)NC(=O)[C@H](CCN)NC(=O)[C@H](CC(C)C)NC(=O)[C@@H](Cc2ccccc2)NC(=O)[C@H](CCN)NC1=O)[C@@H](C)O	> 32	> 32	> 32	> 32	> 32	16 (≈ 13.3 µM)	16 (≈ 13.3 µM)	16 (≈ 13.3 µM)	8 (≈ 6.65 µM)	32 (≈ 26.6 µM)	2 (≈ 1.66 µM)	> 32	> 32	4 (≈ 3.33 µM)	> 32	> 32	> 32
CC[C@H](C)CCCCC(=O)N[C@@H](CCN)C(=O)N[C@H](C(=O)N[C@@H](CCN)C(=O)N[C@H]1CCNC(=O)[C@H](CN)NC(=O)[C@H](CCN)NC(=O)[C@H](CCN)NC(=O)[C@H](CC(C)C)NC(=O)[C@@H](Cc2ccccc2)NC(=O)[C@H](CCN)NC1=O)[C@@H](C)O	4 (≈ 3.37 µM)	0.5 (≈ 0.421 µM)	2 (≈ 1.68 µM)	4 (≈ 3.37 µM)	2 (≈ 1.68 µM)	2 (≈ 1.68 µM)	1 (≈ 0.841 µM)	1 (≈ 0.841 µM)	2 (≈ 1.68 µM)	2 (≈ 1.68 µM)	1 (≈ 0.841 µM)	4 (≈ 3.37 µM)	> 32	1 (≈ 0.841 µM)	16 (≈ 13.5 µM)	2 (≈ 1.68 µM)	4 (≈ 3.37 µM)
CC[C@H](C)CCCCC(=O)N[C@@H](CCN)C(=O)N[C@H](C(=O)N[C@@H](CCN)C(=O)N[C@H]1CCNC(=O)[C@H](Cc2ccccc2)NC(=O)[C@H](CCN)NC(=O)[C@H](CCN)NC(=O)[C@H](CC(C)C)NC(=O)[C@@H](Cc2ccccc2)NC(=O)[C@H](CCN)NC1=O)[C@@H](C)O	1 (≈ 0.8 µM)	1 (≈ 0.8 µM)	1 (≈ 0.8 µM)	4 (≈ 3.2 µM)	2 (≈ 1.6 µM)	2 (≈ 1.6 µM)	2 (≈ 1.6 µM)	2 (≈ 1.6 µM)	0.5 (≈ 0.4 µM)	1 (≈ 0.8 µM)	1 (≈ 0.8 µM)	2 (≈ 1.6 µM)	2 (≈ 1.6 µM)	1 (≈ 0.8 µM)	4 (≈ 3.2 µM)	4 (≈ 3.2 µM)	4 (≈ 3.2 µM)
